Assay results reported in patent US11154519B2, “Inhibitors and their uses” (MEDICAL RESEARCH COUNCIL, priority 2015, dated 2021).

Assays:
HeLa cells = experiment: Cytoprotection against ER stress (tunicamycin), IncuCyte; assay type: cell-based; conditions: Homo sapiens, 250 ng/ml Tunicamycin, 72 hours, compound 0-20 μM, read-out: Cytoprotection from Tm (compared to GNB)
Experimental: HeLa cells (40,000 cells/ml) were plated in a 96-well plate and treated with different concentrations (0-20 μM) of a compound as indicated in the presence of 250 ng/ml Tunicamycin for 72 hours. To monitor cell death 1/2000 dilution of the CellTox green dye (Promega) was added to the media. The growth of the cells was monitored over time and pictures taken every 2 hours with the IncuCyte ZOOM system and analysed by the IncuCyte ZOOM software (Essen BioScience). […] Cytoprotection against ER stress can be measured by a suitable assay. In this instance, cytoprotection was measured in HeLa cells in which ER stress was elicited by the addition of media containing tunicamycin, a drug that blocks N-glycosylation, thereby preventing protein folding and inducing the unfolded protein response. Cell viability was then detected in the presence and absence of a compound listed in Table 1 after a set period of time, by monitoring cell growth over time. Cytoprotection from ER stress was measured in terms of the percentage increase in viable cells (relative to control) after ER stress.

R15A or R15B = experiment: Selective binding towards R15A or R15B (based on SPR); design: species or system human
Experimental: In one embodiment, the compounds of formula IB inhibit PPP1R15A and PPP1R15B. Inhibition of PPP1R15A and PPP1R15B can be determined from binding analysis. For example, binding can be analysed using SPR (surface plasmon resonance) to obtain KD values. A PPP1R15A and PPP1R15B inhibitor may be defined as a compound where the difference in KD values between R15A and R15B is no more than about 3 fold.
Small molecules were stored as 50 mM stock solutions in 100% DMSO. Prior to determining binding constants, serial dilutions of either 12 or 8 concentrations of the compounds were prepared in the running buffer in a 96-well plate. Prior to each compound dilution series the regulatory subunit, MBP-R15A^325-636-His or MBP-R15B^340-698-His, was diluted to 10 μM in the running buffer and captured on the bio-PP1c surface at a flow rate of 30 μl/min for 1 minute to form the holophosphatase complex on the sensor chip surface. This was followed by 1 minute stabilization period, to wash off any unspecific binding. Then, without regenerating the surface, the compound dilution series was injected onto the surface of the chip at a flow rate of 30 μl/min for 1 minute, followed by 2 minutes dissociation time. After each dilution series the surface was regenerated using 3 M NaCl for 90 seconds. After regeneration, SPR responses generally returned to base levels and the bio-PP1c surface was ready for the next compound dilution series. In order to be able to correct for small variations in DMSO concentration between samples, eight solvent samples ranging from 0.06 to 8% DMSO were injected every 50th cycle. The flow cell temperature was 10° C.
Sensorgrams were analyzed using the Biacore T200 evaluation software and the binding constants determined based on a steady-state model. Kinetic experiments are carried out using different concentrations of the compound and their respective equilibrium binding levels determined.

Row | SMILES | Emax (HeLa cells) [%] | Selective binding towards R15A or R15B (based on SPR) (R15A or R15B)
1 | [H]/N=C(\N)NN=Cc1ccc(Cl)cc1 [Compound 1, (E)-2-((4-chlorophenyl)methylene)hydrazine-1-carboximidamide] | 0 | R15AB (A PPP1R15A and PPP1R15B inhibitor may be defined as a compound where the difference in KD values between R15A and R15B is no more than about 3 fold)
2 | N=C(N)N/N=C/c1cc(Cl)c(Cl)c(Cl)c1 [Compound 3, (E)-2-(3,4,5-trichlorobenzylidene)hydrazine-1-carboximidamide] | 52 | R15AB (A PPP1R15A and PPP1R15B inhibitor may be defined as a compound where the difference in KD values between R15A and R15B is no more than about 3 fold)
3 | [H]/N=C(\N)NN=Cc1cc(Cl)c(F)c(Cl)c1 [Compound 5, (E)-2-(3,5-dichloro-4-fluorobenzylidene)hydrazine-1-carboximidamide] | 48 | R15AB (A PPP1R15A and PPP1R15B inhibitor may be defined as a compound where the difference in KD values between R15A and R15B is no more than about 3 fold)
4 | [H]/N=C(\N)NN=Cc1ccc(Cl)c(Cl)c1Cl [Compound 6, (E)-2-(2,3,4-trichlorobenzylidene)hydrazine-1-carboximidamide] | 61 | R15AB (A PPP1R15A and PPP1R15B inhibitor may be defined as a compound where the difference in KD values between R15A and R15B is no more than about 3 fold)
5 | [H]/N=C(\N)NN=Cc1cc(F)c(Cl)cc1Cl [Compound 7, (E)-2-(2,4-dichloro-5-fluorobenzylidene)hydrazine-1-carboximidamide] | 46 | R15AB (A PPP1R15A and PPP1R15B inhibitor may be defined as a compound where the difference in KD values between R15A and R15B is no more than about 3 fold)
6 | [H]/N=C(\N)NN=Cc1ccc(Cl)c(F)c1 [Compound 8, (E)-2-(4-chloro-3-fluorobenzylidene)hydrazine-1-carboximidamide] | 0 | R15AB (A PPP1R15A and PPP1R15B inhibitor may be defined as a compound where the difference in KD values between R15A and R15B is no more than about 3 fold)
7 | [H]/N=C(\N)NN=Cc1cccc(Cl)c1Br [Compound 9, (E)-2-(2-bromo-3-chlorobenzylidene)hydrazine-1-carboximidamide] | 67 | R15A (A “selective inhibitor” may be defined as a compound where the difference in KD values between R15A and R15B is greater than 3 fold)
8 | [H]/N=C(\N)NN=Cc1cc(Cl)cc(Cl)c1Cl [Compound 10, (E)-2-(2,3,5-trichlorobenzylidene)hydrazine-1-carboximidamide] | 85 | R15AB (A PPP1R15A and PPP1R15B inhibitor may be defined as a compound where the difference in KD values between R15A and R15B is no more than about 3 fold)
9 | [H]/N=C(\N)NN=Cc1ccc(Cl)c(Cl)c1 [Compound 11, (E)-2-(3,4-dichlorobenzylidene)hydrazine-1-carboximidamide] | 34 | R15AB (A PPP1R15A and PPP1R15B inhibitor may be defined as a compound where the difference in KD values between R15A and R15B is no more than about 3 fold)
10 | [H]/N=C(\N)NN=Cc1ccc(Cl)c(F)c1Cl [Compound 13, (E)-2-(2,4-dichloro-3-fluorobenzylidene)hydrazine-1-carboximidamide] | 73 | R15AB (A PPP1R15A and PPP1R15B inhibitor may be defined as a compound where the difference in KD values between R15A and R15B is no more than about 3 fold)
11 | [H]/N=C(\N)NN=Cc1ccc(F)c(Cl)c1Cl [Compound 14, (E)-2-(2,3-dichloro-4-fluorobenzylidene)hydrazine-1-carboximidamide] | 100 | R15AB (A PPP1R15A and PPP1R15B inhibitor may be defined as a compound where the difference in KD values between R15A and R15B is no more than about 3 fold)
12 | [H]/N=C(\N)NN=Cc1ccc(F)c(Cl)c1 [Compound 15, (E)-2-(3-chloro-4-fluorobenzylidene)hydrazine-1-carboximidamide] | 46 | R15AB (A PPP1R15A and PPP1R15B inhibitor may be defined as a compound where the difference in KD values between R15A and R15B is no more than about 3 fold)
13 | [H]/N=C(\N)NN=Cc1cccc(Cl)c1Cl [Compound 16, (E)-2-(2,3-dichlorobenzylidene)hydrazine-1-carboximidamide] | 92 | R15B (A “selective inhibitor” may be defined as a compound where the difference in KD values between R15A and R15B is greater than 3 fold)
14 | [H]/N=C(\N)NN=Cc1ccccc1F [Compound 17, (E)-2-(2-fluorobenzylidene)hydrazine-1-carboximidamide] | 66 | R15AB (A PPP1R15A and PPP1R15B inhibitor may be defined as a compound where the difference in KD values between R15A and R15B is no more than about 3 fold)
15 | N=C(N)N/N=C/c1cc(Cl)c(Cl)cc1F [Compound 18, (E)-2-(4,5-dichloro-2-fluorobenzylidene)hydrazine-1-carboximidamide] | 54 | R15AB (A PPP1R15A and PPP1R15B inhibitor may be defined as a compound where the difference in KD values between R15A and R15B is no more than about 3 fold)
16 | [H]/N=C(\N)NN=Cc1cc(F)ccc1Cl [Compound 20, (E)-2-(2-chloro-5-fluorobenzylidene)hydrazine-1-carboximidamide] | 88 | R15AB (A PPP1R15A and PPP1R15B inhibitor may be defined as a compound where the difference in KD values between R15A and R15B is no more than about 3 fold)
17 | [H]/N=C(\N)NN=Cc1cccnc1Cl [Compound 21, (E)-2-((2-chloropyridin-3-yl)methylene)hydrazine-1-carboximidamide] | 41 | R15AB (A PPP1R15A and PPP1R15B inhibitor may be defined as a compound where the difference in KD values between R15A and R15B is no more than about 3 fold)
18 | [H]/N=C(\N)NN=Cc1ccc(Cl)nc1Cl [Compound 22, (E)-2-((2,6-dichloropyridin-3-yl)methylene)hydrazine-1-carboximidamide] | 48 | R15AB (A PPP1R15A and PPP1R15B inhibitor may be defined as a compound where the difference in KD values between R15A and R15B is no more than about 3 fold)
19 | [H]/N=C(\N)NN=Cc1cccc(F)c1 [Compound 23, (E)-2-(3-fluorobenzylidene)hydrazine-1-carboximidamide] | 53 | R15AB (A PPP1R15A and PPP1R15B inhibitor may be defined as a compound where the difference in KD values between R15A and R15B is no more than about 3 fold)
20 | [H]/N=C(\N)NN=Cc1cccc(Cl)c1 [Compound 24, (E)-2-(3-chlorobenzylidene)hydrazine-1-carboximidamide] | 62 | R15AB (A PPP1R15A and PPP1R15B inhibitor may be defined as a compound where the difference in KD values between R15A and R15B is no more than about 3 fold)
21 | [H]/N=C(\N)NN=Cc1cc(Cl)ccc1Cl [Compound 26, (E)-2-(2,5-dichlorobenzylidene)hydrazine-1-carboximidamide] | 57 | R15AB (A PPP1R15A and PPP1R15B inhibitor may be defined as a compound where the difference in KD values between R15A and R15B is no more than about 3 fold)
22 | [H]/N=C(\N)NN=Cc1cc(F)cc(F)c1Cl [Compound 29, (E)-2-(2-chloro-3,5-difluorobenzylidene)hydrazine-1-carboximidamide] | 62 | R15AB (A PPP1R15A and PPP1R15B inhibitor may be defined as a compound where the difference in KD values between R15A and R15B is no more than about 3 fold)
23 | [H]/N=C(\N)NN=Cc1cccc(Cl)c1F [Compound 30, (E)-2-(3-chloro-2-fluorobenzylidene)hydrazine-1-carboximidamide] | 85 | R15AB (A PPP1R15A and PPP1R15B inhibitor may be defined as a compound where the difference in KD values between R15A and R15B is no more than about 3 fold)
